Laboratory results as given in patent US8440708B2, “Triazole-substituted arylamides as P2X3 and P2X2/3 antagonists” (Roche Palo Alto LLC, priority 2007, dated 2013).

How the values were obtained:
[1] = target: T1, rat P2X3 receptor (Rattus norvegicus, UniProt P49654); assay: P2X3/P2X2/3 FLIPR (Fluorometric Imaging Plate Reader) Assay, P2X3; assay type: cell-based; conditions: CHO-K1 cells transfected with rat P2X3; agonist α,β-meATP 1 μM; Table 1; read-out: P2X3 pKi (converted)
T1 construct: expressed in transfected cells; host or cells: CHO-K1
T1 sequence (P49654 1-397): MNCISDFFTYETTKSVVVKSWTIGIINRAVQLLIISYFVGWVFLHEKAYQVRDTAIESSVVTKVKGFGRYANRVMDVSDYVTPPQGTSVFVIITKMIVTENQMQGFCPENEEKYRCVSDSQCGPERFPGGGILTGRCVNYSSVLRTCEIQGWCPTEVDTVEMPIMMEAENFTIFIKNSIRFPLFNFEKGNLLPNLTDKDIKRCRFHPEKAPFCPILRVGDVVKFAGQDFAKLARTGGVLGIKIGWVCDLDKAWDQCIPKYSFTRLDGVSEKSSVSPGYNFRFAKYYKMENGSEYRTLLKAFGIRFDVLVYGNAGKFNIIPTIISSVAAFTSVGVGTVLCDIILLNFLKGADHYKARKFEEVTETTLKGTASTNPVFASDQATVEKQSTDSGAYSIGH
Outline: (§1)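 Compounds were tested as antagonists of agonist-evoked calcium entry in CHO-K1 cells transfected with rat P2X3 or human P2X2/3. After 20 min with compound at room temperature, cells received α,β-meATP at 1 μM (P2X3) or 5 μM (P2X2/3), and peak fluorescence was recorded over 2 min.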

[2] = target: T2, human P2X2/3 receptor (Homo sapiens, UniProt P56373+Q9UBL9); assay: P2X3/P2X2/3 FLIPR (Fluorometric Imaging Plate Reader) Assay, P2X2/3; assay type: cell-based; conditions: CHO-K1 cells transfected with human P2X2/3; agonist α,β-meATP 5 μM; Table 1; read-out: P2X2/3 pKi (converted)
T2 construct: expressed in transfected cells; host or cells: CHO-K1
T2 sequence (Q9UBL9 1-471): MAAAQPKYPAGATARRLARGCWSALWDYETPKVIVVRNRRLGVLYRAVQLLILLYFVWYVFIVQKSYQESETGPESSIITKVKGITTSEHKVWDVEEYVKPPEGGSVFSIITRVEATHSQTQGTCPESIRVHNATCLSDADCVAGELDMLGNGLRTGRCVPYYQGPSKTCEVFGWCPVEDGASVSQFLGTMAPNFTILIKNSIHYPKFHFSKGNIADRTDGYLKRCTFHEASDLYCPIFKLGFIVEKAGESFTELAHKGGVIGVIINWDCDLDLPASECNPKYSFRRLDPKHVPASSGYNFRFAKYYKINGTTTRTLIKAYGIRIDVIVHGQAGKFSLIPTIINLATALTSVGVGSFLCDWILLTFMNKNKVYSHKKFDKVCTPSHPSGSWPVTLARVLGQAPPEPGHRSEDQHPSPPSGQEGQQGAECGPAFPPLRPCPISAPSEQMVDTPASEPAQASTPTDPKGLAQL
T2 sequence (P56373 1-397): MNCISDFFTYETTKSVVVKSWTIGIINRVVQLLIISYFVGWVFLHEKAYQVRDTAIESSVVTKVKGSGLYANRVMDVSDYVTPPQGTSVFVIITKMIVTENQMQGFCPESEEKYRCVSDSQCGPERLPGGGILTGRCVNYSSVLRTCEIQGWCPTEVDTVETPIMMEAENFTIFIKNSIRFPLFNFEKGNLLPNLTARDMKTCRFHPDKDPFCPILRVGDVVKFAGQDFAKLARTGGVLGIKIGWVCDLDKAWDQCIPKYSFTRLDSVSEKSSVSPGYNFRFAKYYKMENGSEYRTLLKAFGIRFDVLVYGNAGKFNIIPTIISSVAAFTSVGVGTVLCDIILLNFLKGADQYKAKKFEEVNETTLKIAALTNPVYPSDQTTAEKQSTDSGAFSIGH
Outline: as §1

SMILES	Ki [1] [nM]	Ki [2] [nM]
Cc1ccc(-c2cc(-n3ncnc3C(F)(F)F)cc(C(=O)NC(C)c3cnccn3)c2F)nc1 (centres unmarked) [Compound 168, 2-Fluoro-3-(5-methyl-pyridin-2-yl)-N-(1-pyrazin-2-yl-ethyl)-5-(5-trifluoromethyl-[1,2,4]triazol-1-yl)-benzamide]	13.5	2690
Cc1ccc(-c2cc(-n3ncnc3C(F)(F)F)cc(C(=O)NCc3cnc(C)cn3)c2F)nc1 [Compound 169, 2-Fluoro-N-(5-methyl-pyrazin-2-ylmethyl)-3-(5-methyl-pyridin-2-yl)-5-(5-trifluoromethyl-[1,2,4]triazol-1-yl)-benzamide]	4.27	95.5
Cc1ccc(-c2cc(C(=O)NCc3ncc(C)cn3)cc(-n3ncnc3C(F)(F)F)c2)nc1 [Compound 171, 3-(5-Methyl-pyridin-2-yl)-N-(5-methyl-pyrimidin-2-ylmethyl)-5-(5-trifluoromethyl-[1,2,4]triazol-1-yl)-benzamide]	16.6	209
Cc1ccc(-c2cc(-n3ncnc3C(C)C)cc(C(=O)NC(C)c3cnccn3)c2F)nc1 (centres unmarked) [Compound 173, 2-Fluoro-5-(5-isopropyl-[1,2,4]triazol-1-yl)-3-(5-methyl-pyridin-2-yl)-N-(1-pyrazin-2-yl-ethyl)-benzamide]	3.98	85.1
Cc1ccc(-c2cc(-n3ncnc3C(C)C)cc(C(=O)N[C@@H](C)CO)c2F)nc1 [Compound 174, 2-Fluoro-N-((S)-2-hydroxy-1-methyl-ethyl)-5-(5-isopropyl-[1,2,4]triazol-1-yl)-3-(5-methyl-pyridin-2-yl)-benzamide]	6.46	1620
Cc1ccc(-c2cc(-n3ncnc3C(F)(F)F)cc(C(=O)NCc3ccc(C)nn3)c2F)nc1 [Compound 176, 2-Fluoro-N-(6-methyl-pyridazin-3-ylmethyl)-3-(5-methyl-pyridin-2-yl)-5-(5-trifluoromethyl-[1,2,4]triazol-1-yl)-benzamide]	3.72	32.4
Cc1ccc(-c2cc(-n3ncnc3C(F)(F)F)cc(C(=O)NCc3ncc(C)cn3)c2F)nc1 [Compound 177, 2-Fluoro-3-(5-methyl-pyridin-2-yl)-N-(5-methyl-pyrimidin-2-ylmethyl)-5-(5-trifluoromethyl-[1,2,4]triazol-1-yl)-benzamide]	24	151
Cc1ccc(-c2cc(-n3ncnc3C(F)(F)F)cc(C(=O)NCc3cnc(C)nc3)c2F)nc1 [Compound 178, 2-Fluoro-3-(5-methyl-pyridin-2-yl)-N-(2-methyl-pyrimidin-5-ylmethyl)-5-(5-trifluoromethyl-[1,2,4]triazol-1-yl)-benzamide]	3.63	51.3
Cc1ccc(-c2cc(C(=O)N[C@H](C)CN3CCOCC3)cc(-n3ncnc3C(F)(F)F)c2)nc1 [Compound 179, N-((R)-1-Methyl-2-morpholin-4-yl-ethyl)-3-(5-methyl-pyridin-2-yl)-5-(5-trifluoromethyl-[1,2,4]triazol-1-yl)-benzamide]	24.5	339
Cc1ccc(-c2cc(C(=O)N[C@@H](C)c3cnccn3)cc(-n3ncnc3C(F)(F)F)c2)nc1 [Compound 180, 3-(5-Methyl-pyridin-2-yl)-N-((S)-1-pyrazin-2-yl-ethyl)-5-(5-trifluoromethyl-[1,2,4]triazol-1-yl)-benzamide]	6.61	46.8
